Measured values published in ChEMBL document CHEMBL6177984, “Pyrazolo[1,5-a]pyrimidine-Based Type-I Photosensitizer as an Efficient Pyroptosis Inducer for Tumor Ablation” (J Med Chem, 2025).
Calls of active or inactive are those of the source. No cut-off for these calls is given here.

How the values were obtained:
[1] = test system: MDA-MB-231; assay: Induction of ROS production in human MDA-MB-231 cells assessed as increase in intracellular OH level at 0.3 uM preincubated with compound for 1 hr followed by light irradiation with 400 to 700 nm 100 mW/cm2 for 10 mins by HPF fluorescent probe based flow cytometry; type: functional, cell-based; details: time 70.0 min
[2] = test system: MDA-MB-231; assay: Photocytotoxicity in human MDA-MB-231 cells assessed as cell viability preincubated with compound for 1 hr followed by light irradiated with 400 to 700 nm 100 mW/cm^2 for 10 mins and measured after 24 hrs by CCK-8 assay; type: functional, cell-based; details: MDA-MB-231, light or radiation study
[3] = Dark cytotoxicity against human MDA-MB-231 cells assessed as cell viability incubated for 24 hrs by CCK8 assay; type: toxicity, cell-based
[4] = test system: MDA-MB-231; assay: Photocytotoxicity in human MDA-MB-231 cells assessed as reduction in ATP level at 0.5 uM preincubated with compound for 6 hrs followed by light irradiated with 400 to 700 nm 100 mW/cm^2 for 10 mins; type: functional, cell-based; details: time 370.0 min
[5] = Toxicity in BALB/c mouse implanted with mouse 4T1 cells assessed as lung damage at 1 mg/kg, iv using self assembled nanoparticle as source of compound measured up to 16 days by H and E staining based analysis; type: organism-based; details: in vivo, 384 h, time < 16 day
[6] = Toxicity in BALB/c mouse implanted with mouse 4T1 cells assessed as kidney damage at 1 mg/kg, iv using self assembled nanoparticle as source of compound measured up to 16 days by H and E staining based analysis; type: organism-based; details: in vivo, 384 h, time < 16 day
[7] = test system: MDA-MB-231; assay: Photocytotoxicity in human MDA-MB-231 cells assessed as cell viability at 1 uM preincubated with compound for 1 hr followed by light irradiated with 400 to 700 nm 100 mW/cm^2 for 10 mins and measured after 24 hrs by CCK-8 assay; type: functional, cell-based; details: time 1510.0 min
[8] = test system: MDA-MB-231; assay: Induction of ROS production in human MDA-MB-231 cells assessed as increase in […] fluorescence intensity at 0.3 uM preincubated with compound for 1 hr followed by light irradiation with 400 to 700 nm 100 mW/cm2 for 10 mins by DHE fluorescent probe based flow cytometry; type: functional, cell-based; details: time 70.0 min
[9] = test system: MDA-MB-231; assay: Effect on caspase-3 expression in human MDA-MB-231 cells at 0.5 to 1 uM incubated for 3 hrs by Western blot analysis; type: functional, cell-based; details: dose 0.5-1 µM
[10] = test system: MDA-MB-231; assay: Photocytotoxicity in human MDA-MB-231 cells assessed as cell viability preincubated with compound for 1 hr followed by light irradiated with 400 to 700 nm 100 mW/cm^2 for 10 mins and measured after 24 hrs under hypoxic condition by CCK-8 assay; type: functional, cell-based; details: MDA-MB-231, light or radiation study
[11] = test system: MDA-MB-231; assay: Induction of pyroptosis in human MDA-MB-231 cells assessed as formation of bubble-like protrusion on plasma membrane at 0.5 uM preincubated with compound for 1 hr followed by light irradiated with 400 to 700 nm 100 mW/cm^2 for 10 mins and measured after 6 hrs by DiO staining based confocal microscopic analysis; type: functional, cell-based; details: time 430.0 min
[12] = test system: MDA-MB-231; assay: Induction of ROS production in human MDA-MB-231 cells assessed as increase in green fluorescence intensity at 0.3 uM preincubated with compound for 1 hr followed by light irradiation with 400 to 700 nm 100 mW/cm2 for 10 mins by HPF fluorescent probe based flow cytometry; type: functional, cell-based; details: time 70.0 min
[13] = test system: MDA-MB-231; assay: Photocytotoxicity in human MDA-MB-231 cells assessed as cell death by measuring red fluorescence intensity at 0.5 uM preincubated with compound for 1 hr followed by light irradiated with 400 to 700 nm 100 mW/cm^2 for 10 mins and measured after 24 hrs by PI staining based confocal microscopic analysis; type: functional; details: time 1510.0 min
[14] = test system: MDA-MB-231; assay: Photocytotoxicity in human MDA-MB-231 cells assessed as cell viability by measuring green fluorescence intensity at 0.5 uM preincubated with compound for 1 hr followed by light irradiated with 400 to 700 nm 100 mW/cm^2 for 10 mins and measured after 24 hrs by Calcein-AM staining based confocal microscopic analysis; type: functional; details: time 1510.0 min
[15] = test system: 4T1; assay: Antitumor activity against mouse 4T1 cells implanted in BALB/c mouse assessed as increase CD4+ CD8+ cells in lymph at 1 mg/kg, iv using self assembled nanoparticle as source of compound preincubated with compound for 3 hrs followed by irradiation with 400 to 700 nm 100 mW/cm2 for 5 mins and measured after 14 days by flow cytometry analysis; type: functional, organism-based; details: time 20345.0 min
[16] = test system: 4T1; assay: Antitumor activity against mouse 4T1 cells implanted in BALB/c mouse assessed as increase CD4+ CD8+ cells in spleen at 1 mg/kg, iv using self assembled nanoparticle as source of compound preincubated with compound for 3 hrs followed by irradiation with 400 to 700 nm 100 mW/cm2 for 5 mins and measured after 14 days by flow cytometry analysis; type: functional, organism-based; details: time 20345.0 min
[17] = test system: MDA-MB-231; assay: Induction of pyroptosis in human MDA-MB-231 cells assessed as swelling bubble formation at 0.5 uM preincubated with compound for 3 hrs followed by light irradiated with 400 to 700 nm 100 mW/cm^2 for 10 mins by confocal microscopic analysis; type: functional, cell-based; details: time 190.0 min
[18] = test system: MDA-MB-231; assay: Upregulation of cleaved caspase expression in human MDA-MB-231 cells at 0.5 to 1 uM preincubated with compound for 1 hr followed by light irradiated with 400 to 700 nm 100 mW/cm^2 for 10 mins and measured after 3 hrs by Western blot analysis; type: functional, cell-based; details: dose 0.5-1 µM, time 250.0 min
[19] = Induction of ROS generation in BPS buffer assessed as increase in singlet oxygen level by measuring reduction in ABDA absorption peak at 10 uM irradiated with 400 to 700 nm 20 mW/cm2 light […]; type: functional
[20] = Toxicity in BALB/c mouse implanted with mouse 4T1 cells assessed as change in body weight at 1 mg/kg, iv using self assembled nanoparticle as source of compound measured up to 16 days; type: organism-based; details: in vivo, 384 h, time < 16 day
[21] = Toxicity in BALB/c mouse implanted with mouse 4T1 cells assessed as liver damage at 1 mg/kg, iv using self assembled nanoparticle as source of compound measured up to 16 days by H and E staining based analysis; type: organism-based; details: in vivo, 384 h, time < 16 day
[22] = Toxicity in BALB/c mouse implanted with mouse 4T1 cells assessed as heart damage at 1 mg/kg, iv using self assembled nanoparticle as source of compound measured up to 16 days by H and E staining based analysis; type: organism-based; details: in vivo, 384 h, time < 16 day
[23] = test system: MDA-MB-231; assay: Induction of pyroptosis mediated immunogenic cell death in human MDA-MB-231 cells assessed as HMGB1 release from nucleus at 0.5 uM preincubated with compound for 1 hr followed by light irradiated with 400 to 700 nm 100 mW/cm^2 for 10 mins and measured after 18 hrs; type: functional, cell-based; details: time 1150.0 min
[24] = Induction of ROS generation in BPS buffer assessed as increase in superoxide anion radical level by measuring increase in DHR123 fluorescence intensity at 10 uM irradiated with 400 to 700 nm 20 mW/cm2 light by DHR123 probe based fluorescence spectra analysis; type: functional; details: time <= 10.0 min
[25] = test system: MDA-MB-231; assay: Effect on GSDME expression in human MDA-MB-231 cells at 0.5 to 1 uM incubated for 3 hrs by Western blot analysis; type: functional, cell-based; details: dose 0.5-1 µM
[26] = test system: MDA-MB-231; assay: Dark cytotoxicity against human MDA-MB-231 cells assessed as cell viability at 1 uM incubated for 24 hrs by CCK8 assay; type: toxicity, cell-based; details: mda-mb-231, 24 h
[27] = test system: MDA-MB-231; assay: Induction of apoptosis in human MDA-MB-231 cells assessed as cell death by flow cytometry analysis; type: functional, cell-based
[28] = test system: MDA-MB-231; assay: Upregulation of N-terminal GSDME expression in human MDA-MB-231 cells at 0.5 to 1 uM preincubated with compound for 1 hr followed by light irradiated with 400 to 700 nm 100 mW/cm^2 for 10 mins and measured after 6 hrs by Western blot analysis; type: functional, cell-based; details: dose 0.5-1 µM, time 430.0 min
[29] = test system: 4T1; assay: Antitumor activity against mouse 4T1 cells implanted in BALB/c mouse assessed as increase in caspase-3 level at 1 mg/kg, iv using self assembled nanoparticle as source of compound preincubated with compound for 3 hrs followed by irradiation with 400 to 700 nm 100 mW/cm2 for 5 mins and measured after 14 days; type: functional, organism-based; details: time 20345.0 min
[30] = test system: MDA-MB-231; assay: Induction of ROS production in human MDA-MB-231 cells assessed as increase in red fluorescence intensity at 0.3 uM preincubated with compound for 1 hr followed by light irradiation with 400 to 700 nm 100 mW/cm2 for 10 mins by […] fluorescent probe based flow cytometry; type: functional, cell-based; details: time 70.0 min
[31] = Toxicity in BALB/c mouse implanted with mouse 4T1 cells assessed as spleen damage at 1 mg/kg, iv using self assembled nanoparticle as source of compound measured up to 16 days by H and E staining based analysis; type: organism-based; details: in vivo, 384 h, time < 16 day
[32] = test system: 4T1; assay: Antitumor activity against mouse 4T1 cells implanted in BALB/c mouse at 1 mg/kg, iv using self assembled nanoparticle as source of compound measured at 3 hrs; type: functional, organism-based
[33] = test system: MDA-MB-231; assay: Induction of pyroptosis in human MDA-MB-231 cells assessed as increase in IL-18 content at 0.5 uM preincubated with compound for 1 hr followed by light irradiated with 400 to 700 nm 100 mW/cm^2 for 10 mins and measured after 12 to 20 hrs; type: functional, cell-based; details: time 790-1270 min
[34] = test system: MDA-MB-231; assay: Induction of pyroptosis in human MDA-MB-231 cells assessed as increase in IL-1beta content at 0.5 uM preincubated with compound for 1 hr followed by light irradiated with 400 to 700 nm 100 mW/cm^2 for 10 mins and measured after 12 to 20 hrs; type: functional, cell-based; details: time 790-1270 min
[35] = test system: 4T1; assay: Photocytotoxicity in mouse 4T1 cells assessed as cell viability up to 10 uM preincubated with compound for 1 hr followed by light irradiated with 400 to 700 nm 100 mW/cm^2 for 10 mins and measured after 24 hrs by CCK-8 assay; type: functional, cell-based; details: time 1510.0 min
[36] = test system: MDA-MB-231; assay: Induction of ROS production in human MDA-MB-231 cells assessed as increase in red fluorescence intensity at 0.3 uM preincubated with compound for 1 hr followed by light irradiation with 400 to 700 nm 100 mW/cm2 for 10 mins by DHE fluorescent probe based flow cytometry; type: functional, cell-based; details: time 70.0 min
[37] = test system: MDA-MB-231; assay: Induction of pyroptosis mediated immunogenic cell death in human MDA-MB-231 cells assessed as increase in ATP release at 0.5 uM preincubated with compound for 1 hr followed by light irradiated with 400 to 700 nm 100 mW/cm^2 for 10 mins and measured after 6 to 12 hrs by microplate luminometer analysis; type: functional, cell-based; details: time 430-790 min
[38] = test system: 4T1; assay: Induction of pyroptosis in mouse 4T1 cells preincubated with compound for 1 hr followed by light irradiated with 400 to 700 nm 100 mW/cm^2 for 10 mins; type: functional, cell-based; details: time 70.0 min
[39] = test system: MDA-MB-231; assay: Induction of pyroptosis in human MDA-MB-231 cells assessed as change in LDH level at 0.5 uM preincubated with compound for 1 hr followed by light irradiated with 400 to 700 nm 100 mW/cm^2 for 10 mins and measured after 12 to 24 hrs; type: functional, cell-based; details: time 790-1510 min
[40] = test system: MDA-MB-231; assay: Induction of pyroptosis mediated immunogenic cell death in human MDA-MB-231 cells assessed as increase in CRT exposure on cell membrane at 0.5 uM preincubated with compound for 1 hr followed by light irradiated with 400 to 700 nm 100 mW/cm^2 for 10 mins and measured after 18 hrs; type: functional, cell-based; details: time 1150.0 min
[41] = Drug uptake in human MDA-MB-231 cells at 2 uM measured at 1 hr by flow cytometry analysis; type: ADME, cell-based; details: mda-mb-231, 1 h

O=S(=O)(O)c1cc(O)c(O)c(S(=O)(=O)O)c1
Activity [1]: Active

CC[n+]1c(/C=C/c2ccc(-c3cnn4ccc(N5CCOCC5)nc34)o2)sc2ccccc21
IC50 [2]: 1.01 µM
IC50 at 24 h [3]: > 10 µM

CC[n+]1c(/C=C/c2ccc(-c3cnn4ccc(N5CCOCC5)nc34)s2)sc2ccccc21.[I-]
Activity [4]: Active
Activity [5]: Non-toxic
Activity [6]: Non-toxic
Activity [7]: Active
Activity [8]: Active
Activity [9]: inactive
IC50 [10]: 1.1 µM
Activity [11]: Active
Activity [12]: Active
Activity [13]: Active
Activity [14]: Active
Activity [15]: Active
Activity [16]: Active
Activity [17]: Active
Activity [18]: Active
Activity [19]: Active
Activity [20]: Non-toxic
Activity [21]: Non-toxic
Activity [22]: Non-toxic
Activity [23]: Active
Activity [24]: Time-dependent-effect
Activity [25]: inactive
Activity [26]: Non-toxic
Activity [27]: Active
Activity [28]: Active
Activity [1]: Active
IC50 [2]: 0.22 µM
Activity [29]: Active
Activity [30]: Active
Activity [31]: Non-toxic
Activity [32]: Active
Activity [33]: Active
Activity [34]: Active
Activity [35]: Active
Activity [36]: Active
Activity [37]: Active
Activity [38]: Active
Activity [39]: Active
IC50 at 24 h [3]: > 20 µM
Activity [40]: Active
Drug uptake [41]: Active

CC[N+]1=C(/C=C/c2ccc(-c3cnn4ccc(N5CCOCC5)nc34)s2)C(C)(C)c2cc(I)ccc21
Activity [7]: Active
IC50 [2]: 0.28 µM
IC50 at 24 h [3]: > 10 µM
